Laboratory results reported in patent US20110112160A1, “TABLET COMPRISING EPROSARTAN MESYLATE” (LEK PHARMACEUTICALS D.D., priority 2008, published 2011).

Legend:
intestinal epithelium = conditions: background art; cited from earlier work
[1] = background art; cited from earlier work
Flowability = format: physicochemical; conditions: drug per se; with sticking on punches
[2] = Hygroscopicity and interconversion of forms at high relative humidity; format: physicochemical; conditions: at RH over 60%
Description: Eprosartan mesylate is hygroscopic (at RH over 60%).

[3] = at pH 2; typically; cited from earlier work
[4] = Physical stability, form of eprosartan mesylate by X-ray diffraction (XRD); format: physicochemical; conditions: at ambient temperature and humidity
Experimental: During the dry granulation processes using different excipients from the list above, physical stability of the eprosartan mesylate anhydrate was investigated. […] The final tablet form and placebo powder were analyzed by X-ray diffraction (XRD) pattern to confirm presence of anhydrous form of eprosartan mesylate.
Diffractograms were collected on X'Pert PRO MPD diffractometer using CuKα radiation. Data were recorded from 2 do 40°2θ; in steps of 0.033°2θ; with the integration times 50 s (routine testing) and from 4 do 20°2θ; in steps of 0.033°2θ; with the integration times 2000 s (to achieve lower LOD). The range for measurements with longer integration times was chosen according to the known diffractograms of eprosartan mesylate crystalline forms, which all have characteristic peaks in the carefully measured range between 4 and 20°2theta.

Row | flowability (Flowability) | hygroscopicity [2] | physical and chemical stability [4] | Compound | permeability across the intestinal epithelium (intestinal epithelium) | bioavailability [1] [%] | solubility [3] | interconversion of form [2]
1 | below 0.15 g/sec | hygroscopic |  | CCCCc1ncc(/C=C(\Cc2cccs2)C(=O)O)n1Cc1ccc(C(=O)O)cc1.CS(=O)(=O)O [eprosartan mesylate, (E)-α-[2-n-butyl-1-[(4-carboxyphenyl)methyl]-1H-imidazol-5-yl]methylene-2-thiophenepropionic acid monomethanesulfonate] | low permeability | 13 | less than 0.1 mg/ml | 
2 |  |  | physically and chemically stable | CCCCc1ncc(/C=C(\Cc2cccs2)C(=O)O)n1Cc1ccc(C(=O)O)cc1.CS(=O)(=O)O [Eprosartan mesylate in anhydrous form] |  |  |  | interconverts to eprosartan mesylate mono- and later to dihydrate
